What is called LD50 is the dose expected to kill half of the subjects tested. Low readings indicate greater toxicity, high ones lower toxicity.

The subject of one data set is Escherichia coli ATCC 26. As to the kind of experiment: in vitro antibacterial spectrum, disc method (pH 8.0). Type of data set: cell-based. The settings on record: ATCC26, Escherichia coli ATCC 26, disc method, read-out: Minimum Inhibitory Concentration (MIC). The source says: (§1) The in vitro antibacterial spectra of DC-11 determined by the disc method (pH 8.0) is illustrated in the following Table 4.

Data set [1] has as its system Klebsiella pneumoniae ATCC 10031. Described as above. Type of data set: cell-based. Conditions: ATCC10031, Klebsiella pneumoniae ATCC 10031, disc method, read-out: Minimum Inhibitory Concentration (MIC).
Source text: as §1

The subject of data set [2] is Salmonella typhosa ATCC 9992. The data set is described as above. The settings on record: Salmonella enterica, pH 8, read-out: Minimum Inhibitory Concentration (MIC). Format: cell-based.
Source text: as §1

Data set [3] concerns Shigella sonnei ATCC 9290. Described as above. Conditions: ATCC9290, Shigella sonnei ATCC 9290, disc method, read-out: Minimum Inhibitory Concentration (MIC). Type of data set: cell-based.
Source text: as §1

The subject of data set [4] is Bacillus subtilis No. 10707. The description is as above. Type of data set: cell-based. The settings on record: Bacillus subtilis No. 10707, disc method, read-out: Minimum Inhibitory Concentration (MIC).
Source text: as §1

Data set [5] has as its system Staphylococcus aureus ATCC 6538 P. Described as above. Conditions: ATCC6538, read-out: Minimum Inhibitory Concentration (MIC). Format: cell-based.
Source text: as §1

Data set [6] has as its system Lymphocytic leukemia P-388 tumor. The data set can be described thus: effect on Lymphocytic leukemia P-388 tumor. Format: in vivo, male CDF1 mice. The settings on record: 24 hours following implantation. On the procedure: Five male CDF1 mice having a weight of about 22 g are used for each group as test animals, and 1×10^6 cells of Lymphocytic leukemia P-388 tumor are implanted intraperitoneally in the test animals. Twenty-fours hours following implantation, 0.2 ml PBS solution containing DC-11 in various concentrations is administered intraperitoneally.
For comparison, 0.2 ml PBS solution containing mitomycin C is administered to a group of test animals intraperitoneally at the same time as the test compound.
The average survival period (ASP: days) and T/C (T: average survival days of the groups administered with test compound, C: average survival days of the control group) after implantation are shown in the following Table 6.

Data set [7] deals with Sarcoma 180 ascites tumor. As to the kind of experiment: effect on sarcoma 180 ascites tumor. Type of data set: in vivo, male ddY-strain mice. Conditions: seven days after implantation. The method, then:
Six male ddY-strain mice having a weight of 20 g are used for each group as test animals; and 5×10^6 cells of Sarcoma 180 ascites tumor are implanted in the animals. After 24 hours following implantation, 0.2 ml phosphate buffered saline (PBS) containing DC-11 in various concentrations is administered intraperitoneally. PBS comprises 0.8 g/dl NaCl, 0.02 g/dl KCl, […] Na2 HPO4, 0.02 g/dl KH2 PO4 (pH 7.2).
For comparison, 0.2 ml PBS solution containing mitomycin C is administered to a group of amimals intraperitoneally at the same time as the test compound.
Seven days after implantation, the average tumor volume (mm^3) and T/C (T: average tumor volume of test compound, C: that of control) are determined.

Data set [8] is described as follows: acute toxicity, intraperitoneal, mice. The settings on record: mouse, in vivo, ip, intraperitoneally.
A short description of the next data set: solubility. Format: physicochemical.

In brackets after ≈: the same amount, converted by molar mass. A value given as a limit tells only on which side of the number the result lay.

Take `COC(=O)NC1C(C)OC(OC2CC=C(C)C3C=CC4C(OC5CC(OC6CCC(OC7CC(O)C(OC8CCC(O)C(C)O8)C(C)O7)C(C)O6)C(OC(C)=O)C(C)O5)C(C)CC(C)C4C3(C)C(=O)C3=C(O)C4(CC(C=O)=CC(O)C4C=C2C)OC3=O)CC1(C)[N+](=O)[O-]` (centres unmarked) [DC-11]: the MIC with Escherichia coli ATCC 26 is more than 100 µg/mL; in data set [1], more than 100 µg/mL; in [2], more than 100 µg/mL; in data set [3], more than 100 µg/mL; in data set [4], 0.1 µg/mL (≈ 0.0761 µM); in data set [5], 20 µg/mL (≈ 15.2 µM). In addition, the “T/C (average survival days, test group / control group)” value in [6] (6.25 mg/Kg i.p.) amounted to 1.20; in [6] (12.5 mg/Kg i.p.) it was 1.43; in [6] (25.0 mg/Kg i.p.), 1.38. Moreover, the “average survival period (ASP)” value in data set [6] (6.25 mg/Kg i.p.) came out at 11.2 days; in [6] (12.5 mg/Kg i.p.) it was 13.4 days; in data set [6] (25.0 mg/Kg i.p.), 13.0 days. The “T/C (average tumor volume of test compound / control)” value amounted to 0.78 in data set [7] (25 mg/Kg i.p.), 0.52 in [7] (50 mg/Kg i.p.) and 0.42 in data set [7] (70 mg/Kg i.p.). Moreover, the “V: average tumor volume” value is 1096 mm^3 in [7] (25 mg/Kg i.p.), 730 mm^3 in data set [7] (50 mg/Kg i.p.) and 590 mm^3 in data set [7] (70 mg/Kg i.p.). Also, the LD50 in data set [8] came to 54 mg/kg. The Solubility result in “solubility” (benzene and water) is “slightly soluble”; in “solubility” (ethylether, petroleum ether and n-hexane), “insoluble”; in the data set “solubility” (methanol, ethanol, butanol, acetone, ethyl acetate and chloroform), “soluble”.
In the case of `CO[C@@]12[C@H](COC(N)=O)C3=C(C(=O)C(C)=C(N)C3=O)N1C[C@@H]1N[C@@H]12` [Mitomycin C, mitomycin C, reference compound], in data set [6] (4.2 mg/Kg i.p.), the “T/C (average survival days, test group / control group)” value came to 1.51 and the “average survival period (ASP)” value was 14.2 days. Also, in data set [7] (4.2 mg/Kg i.p.), the “T/C (average tumor volume of test compound / control)” value came out at 0.32 and the “V: average tumor volume” value was found to be 450 mm^3.

These data come from patent publication US4346075A, “Antibiotic DC-11 and process for production thereof” (Kyowa Hakko Kogyo Co., Ltd., priority 1980, dated 1982).
